How the values were obtained:
[1] = system: SR-BI knockout females; conditions: administered during the breeding protocol; Miettinen et al. 2001; cited from earlier work
[2] = system: Apoe^h/hSRB1^−/−Mx1-Cre mice; assay: Survival of diet-induced heart attacks in Apoe^h/hSRB1^−/−Mx1-Cre mice after pI-pC injection and switch to low fat diet; type: in vivo
Text: The animal model was created by breeding Apoe^h/hSRB1^−/− mice to mice that carry the inducible Mx1-Cre transgene, resulting in Apoe^h/hSRB1^−/−Mx1-Cre mice that are sensitive to diet-induced coronary atherosclerosis and develop fatal myocardial infarctions within 35 days of dietary challenge. However, this new strain of mice can survive its heart attacks if switched to a normal low fat diet and given a single intrapentoneal injection of polyinosinic polycytidylic ribonucleic acid (pI-pC). […] Surviving Apoe^h/hSRB1^−/−MX1-Cre mice can then live for many months. Upon histological analysis of their heart, there is evidence of myocardial infarction and ventricular enlargement. Consequently, the surviving Apoe^h/hSRB1^−/−Mx1-Cre mice are a unique murine model of chronic heart failure that simulates chronic heart failure in humans who survive heart attacks caused by coronary atherosclerosis.
10 Apoe^h/hSRB1^−/−Mx1-Cre mice were fed a high cholesterol diet for 30 days. On day 31, they were injected with pI-pC, and then switched to a low fat diet. Of the 10 mice, 6 survived for two months. At that time point, their hearts were harvested and heart function was assessed in 4 of the 6 mice by Langendorf hemodynamic measurements.

Row | Compound | fertility in the SR-BI knockout females [1] | mice surviving for two months (of 10) ([2]; high cholesterol diet for 30 days, pI-pC injected on day 31, then low fat diet, 10 mice) | blood cholesterol levels ([2]; single intraperitoneal injection, activates Mx1-Cre gene, restores normal Arg-61 apoE levels in blood)
1 | CC(C)(Sc1cc(C(C)(C)C)c(O)c(C(C)(C)C)c1)Sc1cc(C(C)(C)C)c(O)c(C(C)(C)C)c1 [probucol] | restore fertility | – | –
2 | polyinosinic polycytidylic ribonucleic acid [pI-pC] | – | 6 | rapidly and permanently lowers blood cholesterol levels in a few days
